# Results reported in patent US9878978B2, “Processes for the diazotization of 2,5-dichloroanilines” (priority 2013, dated 2018).
# Key:
# [1] = Solubility study of 2,5-dichloroaniline in different solvents; assay type: physicochemical
# Procedure: Three different commercially available sources of 2,5-dichloroaniline (Sigma, Acros, and AlfaAesar) were evaluated for solubility in several different solvents under the specific conditions reported in Table 5-A. The 2,5-dichloroaniline obtained from Sigma was evaluated with and without milling.
# In contrast, it was insoluble in concentrated hydrochloric acid, 75% sulfuric acid (weight/weight sulfuric acid/water), and formic acid at all temperatures tested. Although 2,5-dichloroaniline was soluble in concentrated sulfuric acid at 80° C., solubility at the lower temperatures tested still was limited. Milling the 2,5-dichloroaniline did appear to improve solubility in concentrated sulfuric acid.
# When sulfuric acid was added to the milled or unmilled 2,5-dichloroaniline, the 2,5-dichloroaniline clumped up and formed a “crust” on itself. It is hypothesized that this crust is a 2,5-dichloroaniline sulfate salt that forms and creates a salt capsule enclosing the 2,5-dichloroaniline thereby further reducing 2,5-dichloroaniline solubility. With vigorous stirring by stir bar or paddle-equipped stir rod, the mixture containing the “crusted” 2,5-dichloroaniline typically can be converted to a slurry of the 2,5-dichloroaniline sulfate salt.
# [2] = 2,5-Dichlorophenol stability at 120° C. with or without sodium nitrite and sulfamic acid; assay type: physicochemical; conditions: 120° C. in the various solvents, without sodium nitrite
# Procedure: In this study, 2,5-dichlorophenol was stirred at 120° C. in the presence or absence of sodium nitrite and/or sulfamic acid. The 2,5-dichlorophenol itself was stable and either dissolved or melted in the various solvents at 120° C. Upon addition of sodium nitrite to the solution and heating at 120° C. for 30 minutes, all of the solutions had some byproduct formation. The experiments were repeated with sulfamic acid added at 1.1 times the sodium nitrite equivalents with heating to 120° C. for 30 minutes as before. Byproduct formation was reduced, and only the solutions containing sulfuric acid had byproducts.
# [3] = acetic acid/sulfuric acid reaction mixture stored at room temperature for two weeks
smiles,measurement,setting,value
"Nc1cc(Cl)ccc1Cl [2,5-dichloroaniline]",Solubility,"[1]; 75% sulfuric acid (weight/weight sulfuric acid/water), all temperatures tested",insoluble
same,Solubility,"[1]; Acros, not milled, Conc. H2SO4, molarity 1.12, 10° C.",Partial
same,Solubility,"[1]; Acros, not milled, Conc. H2SO4, molarity 1.12, 25° C.",Soluble
same,Solubility,"[1]; Acros, not milled, Conc. H2SO4, molarity 1.12, 80° C.",Soluble
same,Solubility,"[1]; Acros, not milled, Conc. H2SO4, molarity 2.24, 10° C.",Partial
same,Solubility,"[1]; Acros, not milled, Conc. H2SO4, molarity 2.24, 25° C.",Partial
same,Solubility,"[1]; Acros, not milled, Conc. H2SO4, molarity 2.24, 80° C.",Soluble
same,Solubility,"[1]; Acros, not milled, Glacial Acetic Acid, molarity 1.12, 10° C.",Soluble
same,Solubility,"[1]; Acros, not milled, Glacial Acetic Acid, molarity 1.12, 25° C.",Soluble
same,Solubility,"[1]; Acros, not milled, Glacial Acetic Acid, molarity 1.12, 80° C.",Soluble
same,Solubility,"[1]; Acros, not milled, Glacial Acetic Acid, molarity 2.24, 10° C.",Soluble
same,Solubility,"[1]; Acros, not milled, Glacial Acetic Acid, molarity 2.24, 25° C.",Soluble
same,Solubility,"[1]; Acros, not milled, Glacial Acetic Acid, molarity 2.24, 80° C.",Soluble
same,Solubility,"[1]; AlfaAesar, not milled, Conc. H2SO4, molarity 1.12, 10° C.",Partial
same,Solubility,"[1]; AlfaAesar, not milled, Conc. H2SO4, molarity 1.12, 25° C.",Partial
same,Solubility,"[1]; AlfaAesar, not milled, Conc. H2SO4, molarity 1.12, 80° C.",Soluble
same,Solubility,"[1]; AlfaAesar, not milled, Glacial Acetic Acid, molarity 2.24, 10° C.",Soluble
same,Solubility,"[1]; AlfaAesar, not milled, Glacial Acetic Acid, molarity 2.24, 25° C.",Soluble
same,Solubility,"[1]; AlfaAesar, not milled, Glacial Acetic Acid, molarity 2.24, 80° C.",Soluble
same,Solubility,"[1]; Sigma, milled, Conc. H2SO4, molarity 0.58, 10° C.",Soluble
same,Solubility,"[1]; Sigma, milled, Conc. H2SO4, molarity 0.58, 25° C.",Soluble
same,Solubility,"[1]; Sigma, milled, Conc. H2SO4, molarity 1.16, 10° C.",Soluble
same,Solubility,"[1]; Sigma, milled, Conc. H2SO4, molarity 1.16, 25° C.",Soluble
same,Solubility,"[1]; Sigma, milled, Conc. H2SO4, molarity 2.13, 10° C.",Soluble
same,Solubility,"[1]; Sigma, milled, Conc. H2SO4, molarity 2.13, 25° C.",Soluble
same,Solubility,"[1]; Sigma, milled, Glacial Acetic Acid, molarity 1.16, 10° C.",Soluble
same,Solubility,"[1]; Sigma, milled, Glacial Acetic Acid, molarity 1.16, 25° C.",Soluble
same,Solubility,"[1]; Sigma, milled, Glacial Acetic Acid, molarity 2.24, 10° C.",Soluble
same,Solubility,"[1]; Sigma, milled, Glacial Acetic Acid, molarity 2.24, 25° C.",Soluble
same,Solubility,"[1]; Sigma, not milled, 75% H2SO4, molarity 2.24, 10° C.",Insoluble
same,Solubility,"[1]; Sigma, not milled, 75% H2SO4, molarity 2.24, 25° C.",Insoluble
same,Solubility,"[1]; Sigma, not milled, 75% H2SO4, molarity 2.24, 80° C.",Insoluble
same,Solubility,"[1]; Sigma, not milled, Conc. H2SO4, molarity 2.24, 10° C.",Insoluble
same,Solubility,"[1]; Sigma, not milled, Conc. H2SO4, molarity 2.24, 25° C.",Insoluble
same,Solubility,"[1]; Sigma, not milled, Conc. H2SO4, molarity 2.24, 80° C.",Soluble
same,Solubility,"[1]; Sigma, not milled, Conc. HCl, molarity 2.24, 10° C.",Insoluble
same,Solubility,"[1]; Sigma, not milled, Conc. HCl, molarity 2.24, 25° C.",Insoluble
same,Solubility,"[1]; Sigma, not milled, Conc. HCl, molarity 2.24, 80° C.",Insoluble
same,Solubility,"[1]; Sigma, not milled, Formic Acid (88%), molarity 2.24, 10° C.",Insoluble
same,Solubility,"[1]; Sigma, not milled, Formic Acid (88%), molarity 2.24, 25° C.",Insoluble
same,Solubility,"[1]; Sigma, not milled, Formic Acid (88%), molarity 2.24, 80° C.",Insoluble
same,Solubility,"[1]; Sigma, not milled, Glacial Acetic Acid, molarity 2.24, 25° C.",Soluble
same,Solubility,"[1]; Sigma, not milled, Glacial Acetic Acid, molarity 2.24, 80° C.",Soluble
same,Solubility,"[1]; Sigma, not milled, Trifluoracetic Acid, molarity 2.24, 10° C.",Soluble
same,Solubility,"[1]; Sigma, not milled, Trifluoracetic Acid, molarity 2.24, 25° C.",Soluble
same,Solubility,"[1]; Sigma, not milled, Trifluoracetic Acid, molarity 2.24, 80° C.",Soluble
same,Solubility,"[1]; acetic acid, all temperatures",readily soluble
same,Solubility,"[1]; concentrated hydrochloric acid, all temperatures tested",insoluble
same,Solubility,"[1]; concentrated sulfuric acid, 80° C.",soluble
same,Solubility,"[1]; concentrated sulfuric acid, lower temperatures tested",limited
same,Solubility,"[1]; formic acid, all temperatures tested",insoluble
same,Solubility,"[1]; trifluoroacetic acid, all temperatures",readily soluble
"Oc1cc(Cl)ccc1Cl [2,5-dichlorophenol]",Stability,[2],stable
"N#[N+]c1cc(Cl)ccc1Cl [2,5-Dichlorobenzene diazonium, 2,5-dichlorobenzenediazonium]",Degradation on storage,[3],no degradation
